This passage reports TGI and GI50 results from PubChem BioAssay (NCI).

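These data come from cells grown in 96-well plates and exposed to compound for 48 hours at five concentrations. GI50 = concentration required for 50% inhibition of growth. The concentration for full growth arrest is given as TGI.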

Some test systems named below: COLO 205 colon; HOP-62 NSCLC; LOX IMVI melanoma; SF-539 CNS; U251 CNS; UACC-257 melanoma; CAKI-1 renal; SR leukemia.
Holding throughout (experiment): NCI tumour cell line growth inhibition, 48 h

`O=C(O)/C(=C/C=C/c1ccccc1)c1csc(-c2nc(/C(=C\C=C\c3ccccc3)C(=O)O)cs2)n1`: the TGI with COLO 205 colon was 51.3 µM; in the test with HOP-62 NSCLC it was 54.6 µM; in the test with LOX IMVI melanoma, greater than 100 µM; in the test on SF-539 CNS it was 51.2 µM; with U251 CNS, greater than 100 µM; in the test with UACC-257 melanoma, greater than 100 µM.

For the molecule `S=c1cc(S)sc2c1c(=S)sc1nc3ccccn3c(=S)c12`, the TGI in the test on CAKI-1 renal, with LOX IMVI melanoma, in the test with SF-539 CNS, with SR leukemia and with U251 CNS was greater than 100 µM each time.

Take `O=C(Cn1ccnc1[N+](=O)[O-])c1ccc(F)cc1`: the TGI in the test on CAKI-1 renal, with COLO 205 colon, in the test with HOP-62 NSCLC, with LOX IMVI melanoma, in the test on SF-539 CNS and in the test with U251 CNS was greater than 100 µM each time. In the test with UACC-257 melanoma, this molecule yielded a TGI greater than 100 µM.

As for `COC1OC(COCc2ccc(Cl)cc2)C(OCc2ccc(Cl)cc2)C1N=[N+]=[N-]` (stereo not drawn), the TGI with CAKI-1 renal, in the test with COLO 205 colon, in the test on SR leukemia, with U251 CNS and in the test on UACC-257 melanoma was greater than 100 µM in each case.

Regarding `C1=CC=C2NCCCNC3=CC=CC=CC3=NCCCN=C2C=C1`, the TGI in the test with COLO 205 colon, in the test on HOP-62 NSCLC, in the test on LOX IMVI melanoma, with SF-539 CNS and with U251 CNS was greater than 100 µM each time.

For the molecule `CC(C)(C)c1cc2c3c(c1)C(C(F)(F)F)(C(F)(F)F)O[Te]3(C)OC2(C(F)(F)F)C(F)(F)F`, the TGI in the test on CAKI-1 renal, in the test with COLO 205 colon, in the test on HOP-62 NSCLC, with LOX IMVI melanoma, in the test on SF-539 CNS and with SR leukemia was greater than 100 µM each time. Moreover, the TGI with U251 CNS and in the test with UACC-257 melanoma was greater than 100 µM in each case.

Take `CC(=O)OC(CCC1(C)OC1COc1ccc(CCNC(=O)c2ccccc2)cc1)C(C)(C)OC(C)=O` (stereo not drawn): the TGI with CAKI-1 renal is greater than 100 µM; in the test with COLO 205 colon, 58.4 µM; in the test with HOP-62 NSCLC, greater than 100 µM; with LOX IMVI melanoma, greater than 100 µM; in the test on SF-539 CNS, greater than 100 µM; in the test on SR leukemia it was greater than 100 µM. Moreover, the TGI with U251 CNS is greater than 100 µM; in the test on UACC-257 melanoma, 25.8 µM.

`CC1(C)Cc2cc(C(=O)O)c3c(c2C1=O)COCC3`: the TGI with CAKI-1 renal, in the test with COLO 205 colon, in the test on HOP-62 NSCLC, in the test on LOX IMVI melanoma, in the test with SF-539 CNS and in the test with SR leukemia was greater than 100 µM throughout. Further, the TGI in the test on U251 CNS and in the test with UACC-257 melanoma was greater than 100 µM in each case.

As for `O=CC[C@H]1CCc2ccccc2C12CCC(=O)CC2`, the TGI in the test on CAKI-1 renal, in the test on COLO 205 colon, with HOP-62 NSCLC, in the test on LOX IMVI melanoma, in the test on SF-539 CNS and in the test on UACC-257 melanoma was greater than 100 µM throughout.

With `CCc1cccc(C(C)C)c1NC(=O)C(=O)C(CC(=O)Nc1ccc(Cl)c(Cl)c1)C(=O)OC` (stereo not drawn), the TGI in the test on CAKI-1 renal, in the test with COLO 205 colon, in the test with HOP-62 NSCLC, with LOX IMVI melanoma, with SF-539 CNS and in the test with SR leukemia was greater than 100 µM throughout. Besides, the TGI in the test with U251 CNS and with UACC-257 melanoma was greater than 100 µM each time.

As for `Cc1cc(C)nc(NS(=O)(=O)c2ccc(Nc3c4ccc(Cl)cc4nc4c(C(=O)Nc5ccc(S(N)(=O)=O)cc5)cccc34)cc2)n1`, the TGI in the test with HOP-62 NSCLC turned out to be 37.8 µM; in the test with LOX IMVI melanoma, 34.8 µM; in the test with SF-539 CNS, 37.9 µM; with SR leukemia, 51.5 µM; in the test on U251 CNS it was 28.7 µM; with UACC-257 melanoma it was 43.9 µM.

Regarding `CN(C)c1ccc(Nc2cc(-c3cccc(OC(F)(F)F)c3)nc3ccc(N4CCCC4)cc23)cc1`, the GI50 was 1.75 µM in the test on CAKI-1 renal; 2.56 µM in the test on COLO 205 colon; 1.67 µM in the test on HOP-62 NSCLC; 1.73 µM in the test with LOX IMVI melanoma; 1.77 µM in the test on SF-539 CNS; 1.74 µM in the test with U251 CNS. Besides, the GI50 in the test on UACC-257 melanoma was 1.75 µM. Moreover, the TGI with CAKI-1 renal came out at 3.57 µM; with COLO 205 colon, 9.02 µM; with HOP-62 NSCLC, 3.22 µM; with LOX IMVI melanoma, 3.25 µM; with SF-539 CNS, 3.36 µM; with U251 CNS it was 3.16 µM. The same molecule showed a TGI in the test with UACC-257 melanoma of 3.35 µM.

Take `CN(C)CCNC(=O)c1cccc2c1nc(-c1ccccc1)c1ccccc12`: the TGI amounted to 18.4 µM in the test on CAKI-1 renal; 15.3 µM in the test with COLO 205 colon; 18.5 µM in the test on HOP-62 NSCLC; 4.03 µM in the test on LOX IMVI melanoma; 8.02 µM in the test on SF-539 CNS; 18.4 µM in the test with U251 CNS. In addition, the TGI in the test with UACC-257 melanoma is 3.48 µM.

On to `CCc1cccc(C(C)C)c1N1C(=O)C(=O)C(c2nc3ccccc3s2)C(=O)C1=O`, for which the TGI in the test with CAKI-1 renal, with COLO 205 colon, in the test with HOP-62 NSCLC, with LOX IMVI melanoma, in the test on SF-539 CNS and in the test on U251 CNS was greater than 50 µM in each case. This molecule also displayed a TGI in the test on UACC-257 melanoma greater than 50 µM.

Take `Clc1ccc(C2SCc3nc4ccccc4n32)cc1Cl` (stereo not drawn): the TGI amounted to 27 µM with CAKI-1 renal; 38.3 µM in the test with COLO 205 colon; 27.8 µM in the test with HOP-62 NSCLC; 25.7 µM with LOX IMVI melanoma; 32.3 µM in the test with SF-539 CNS; 55.1 µM in the test on SR leukemia. Moreover, in the test with U251 CNS, the TGI is 30.8 µM.

As to `CC1C[C@@H]2C(=O)NC(=O)[C@@H]2c2c1c1ccccc1n2C` (stereo partly drawn), the TGI in the test with CAKI-1 renal, in the test with COLO 205 colon, with HOP-62 NSCLC, in the test on LOX IMVI melanoma, with SF-539 CNS and in the test on U251 CNS was greater than 100 µM each time. This molecule had a TGI in the test with UACC-257 melanoma greater than 100 µM.

As to `C=C(Br)N(CC)CC`, the TGI in the test on CAKI-1 renal, in the test on COLO 205 colon, in the test with HOP-62 NSCLC, with LOX IMVI melanoma, with SF-539 CNS and in the test on SR leukemia was greater than 100 µM each time. The TGI in the test with U251 CNS and in the test on UACC-257 melanoma was greater than 100 µM in each case.

Consider `CCC1CN2CCc3c([nH]c4ccccc34)C2C[C@@H]1CC(=O)N(C)C` (stereo partly drawn), for which the TGI in the test with COLO 205 colon, in the test on HOP-62 NSCLC, with LOX IMVI melanoma, in the test on SF-539 CNS, with SR leukemia and in the test on U251 CNS was greater than 100 µM in each case. The TGI with UACC-257 melanoma was greater than 100 µM.

`Cc1ccc(S(=O)(=O)OCC23CCC(CC2)C2CC23)cc1` (stereo not drawn): the TGI in the test on CAKI-1 renal, in the test with COLO 205 colon, with HOP-62 NSCLC, in the test with LOX IMVI melanoma, in the test with SR leukemia and in the test with U251 CNS was greater than 100 µM in each case. In addition, the TGI in the test with UACC-257 melanoma is greater than 100 µM.

Turning to `CCCCCCCCCCCCCP(=O)(O)OCC`, the TGI with COLO 205 colon, in the test with HOP-62 NSCLC, in the test with LOX IMVI melanoma, with SF-539 CNS, with U251 CNS and in the test with UACC-257 melanoma was greater than 100 µM each time.

For the molecule `COC(=O)CCC(=O)CC(=O)C(=O)Nc1c(Cl)cc([N+](=O)[O-])cc1Cl`, the TGI in the test on CAKI-1 renal was greater than 100 µM; with COLO 205 colon it was greater than 100 µM; in the test with HOP-62 NSCLC, greater than 100 µM; in the test with LOX IMVI melanoma, greater than 100 µM; in the test with SF-539 CNS, greater than 100 µM; with SR leukemia, 61.7 µM. For the same molecule, the TGI in the test with U251 CNS and in the test on UACC-257 melanoma was greater than 100 µM in each case.

For `CCOC(=O)C1=C(C)N(c2ccc(C)cc2)C2=C(C(=O)N(c3ccccc3)C2c2ccccc2)C1c1ccccc1` (stereo not drawn), the TGI in the test with COLO 205 colon, with HOP-62 NSCLC, in the test on LOX IMVI melanoma, with SF-539 CNS, in the test on SR leukemia and with U251 CNS was greater than 25 µM each time. The TGI with UACC-257 melanoma is greater than 25 µM.

On to `COCCCNC(=O)CC(=O)NCCCOC`, for which the TGI in the test on COLO 205 colon, in the test with HOP-62 NSCLC, in the test on SF-539 CNS, in the test with SR leukemia, in the test with U251 CNS and with UACC-257 melanoma was greater than 100 µM each time.

Regarding `O=[N+]([O-])c1cccc(C2ON2C2CCCCC2)c1` (stereo not drawn), the TGI with CAKI-1 renal was found to be 58.7 µM; in the test on COLO 205 colon, 32.6 µM; in the test with HOP-62 NSCLC, 81.3 µM; in the test with SF-539 CNS it was 46.3 µM; with SR leukemia, 7.81 µM; in the test on U251 CNS it was 14 µM. Besides, the TGI with UACC-257 melanoma was 49.6 µM.

With `O=C(CCC(=O)C(C(=O)c1ccccc1)c1ccccc1)Nc1cccc(C(F)(F)F)c1` (stereo not drawn), the TGI with CAKI-1 renal, with COLO 205 colon, in the test with LOX IMVI melanoma, in the test on SF-539 CNS, in the test with U251 CNS and with UACC-257 melanoma was greater than 100 µM in each case.

For `NCCCNCCCCN(CCCN)/[N+]([O-])=N\O`, the TGI in the test with CAKI-1 renal is greater than 100 µM; with COLO 205 colon, greater than 100 µM; in the test with HOP-62 NSCLC, greater than 100 µM; in the test with SF-539 CNS, greater than 100 µM; in the test with SR leukemia it was 83.9 µM; with UACC-257 melanoma it was greater than 100 µM.

As for `O=C(Cc1nc2ccccc2s1)Nc1cccc(C(F)(F)F)c1`, the TGI in the test on CAKI-1 renal was 31.6 µM; in the test with COLO 205 colon, 30.7 µM; in the test with HOP-62 NSCLC, 32.7 µM; with LOX IMVI melanoma, 26.2 µM; with SF-539 CNS, 33.4 µM; in the test on UACC-257 melanoma it was 28.7 µM.
